Values of other authors, collected in US20090239872A1, “TREATMENT OF MESOTHELIOMA” (priority 2002, published 2009).

Legend:
Conditions in all cases: qualitative statement
[1] = molecular target: c-Kit (Homo sapiens, UniProt P10721)
[2] = molecular target: Flt-1 (Homo sapiens, UniProt P17948)
[3] = molecular target: Flt-4 (Homo sapiens, UniProt P35916)
Sequence of Flt-4 (P35916 25-1363, species assumed): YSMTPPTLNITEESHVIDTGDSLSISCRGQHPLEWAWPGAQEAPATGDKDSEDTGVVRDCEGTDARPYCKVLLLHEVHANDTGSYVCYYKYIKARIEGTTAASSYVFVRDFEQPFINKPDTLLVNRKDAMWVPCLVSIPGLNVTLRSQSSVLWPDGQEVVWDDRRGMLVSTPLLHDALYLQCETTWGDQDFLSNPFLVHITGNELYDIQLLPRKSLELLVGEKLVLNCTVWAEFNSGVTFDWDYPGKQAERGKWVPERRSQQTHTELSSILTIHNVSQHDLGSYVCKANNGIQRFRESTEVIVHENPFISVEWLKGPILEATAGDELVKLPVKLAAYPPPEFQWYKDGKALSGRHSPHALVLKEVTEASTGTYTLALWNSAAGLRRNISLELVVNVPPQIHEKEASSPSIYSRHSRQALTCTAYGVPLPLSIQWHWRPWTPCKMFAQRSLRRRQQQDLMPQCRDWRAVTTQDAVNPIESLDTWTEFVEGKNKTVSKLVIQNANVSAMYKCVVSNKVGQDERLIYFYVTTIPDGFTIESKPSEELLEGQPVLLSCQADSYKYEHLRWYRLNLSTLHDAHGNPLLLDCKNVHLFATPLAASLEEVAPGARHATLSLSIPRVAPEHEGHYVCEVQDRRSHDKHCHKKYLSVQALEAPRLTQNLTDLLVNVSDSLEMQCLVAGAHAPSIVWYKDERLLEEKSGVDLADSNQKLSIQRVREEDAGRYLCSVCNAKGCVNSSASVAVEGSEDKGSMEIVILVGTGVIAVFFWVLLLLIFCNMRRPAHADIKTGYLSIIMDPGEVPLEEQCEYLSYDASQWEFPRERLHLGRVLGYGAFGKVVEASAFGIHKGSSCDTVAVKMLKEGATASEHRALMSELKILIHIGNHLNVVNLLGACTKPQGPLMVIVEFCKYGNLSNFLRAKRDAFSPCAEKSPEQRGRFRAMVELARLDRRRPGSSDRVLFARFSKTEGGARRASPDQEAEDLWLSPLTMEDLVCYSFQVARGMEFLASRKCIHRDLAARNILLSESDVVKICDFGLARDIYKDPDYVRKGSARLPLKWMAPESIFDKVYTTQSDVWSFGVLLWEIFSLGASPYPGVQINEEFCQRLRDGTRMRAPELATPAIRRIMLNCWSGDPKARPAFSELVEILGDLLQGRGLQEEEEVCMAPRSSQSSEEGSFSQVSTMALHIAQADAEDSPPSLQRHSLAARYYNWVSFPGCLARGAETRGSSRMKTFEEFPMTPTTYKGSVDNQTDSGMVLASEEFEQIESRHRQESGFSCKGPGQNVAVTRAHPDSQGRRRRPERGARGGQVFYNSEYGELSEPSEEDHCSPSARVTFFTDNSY

Sequence of Flt-1 (P17948 27-1338, species assumed): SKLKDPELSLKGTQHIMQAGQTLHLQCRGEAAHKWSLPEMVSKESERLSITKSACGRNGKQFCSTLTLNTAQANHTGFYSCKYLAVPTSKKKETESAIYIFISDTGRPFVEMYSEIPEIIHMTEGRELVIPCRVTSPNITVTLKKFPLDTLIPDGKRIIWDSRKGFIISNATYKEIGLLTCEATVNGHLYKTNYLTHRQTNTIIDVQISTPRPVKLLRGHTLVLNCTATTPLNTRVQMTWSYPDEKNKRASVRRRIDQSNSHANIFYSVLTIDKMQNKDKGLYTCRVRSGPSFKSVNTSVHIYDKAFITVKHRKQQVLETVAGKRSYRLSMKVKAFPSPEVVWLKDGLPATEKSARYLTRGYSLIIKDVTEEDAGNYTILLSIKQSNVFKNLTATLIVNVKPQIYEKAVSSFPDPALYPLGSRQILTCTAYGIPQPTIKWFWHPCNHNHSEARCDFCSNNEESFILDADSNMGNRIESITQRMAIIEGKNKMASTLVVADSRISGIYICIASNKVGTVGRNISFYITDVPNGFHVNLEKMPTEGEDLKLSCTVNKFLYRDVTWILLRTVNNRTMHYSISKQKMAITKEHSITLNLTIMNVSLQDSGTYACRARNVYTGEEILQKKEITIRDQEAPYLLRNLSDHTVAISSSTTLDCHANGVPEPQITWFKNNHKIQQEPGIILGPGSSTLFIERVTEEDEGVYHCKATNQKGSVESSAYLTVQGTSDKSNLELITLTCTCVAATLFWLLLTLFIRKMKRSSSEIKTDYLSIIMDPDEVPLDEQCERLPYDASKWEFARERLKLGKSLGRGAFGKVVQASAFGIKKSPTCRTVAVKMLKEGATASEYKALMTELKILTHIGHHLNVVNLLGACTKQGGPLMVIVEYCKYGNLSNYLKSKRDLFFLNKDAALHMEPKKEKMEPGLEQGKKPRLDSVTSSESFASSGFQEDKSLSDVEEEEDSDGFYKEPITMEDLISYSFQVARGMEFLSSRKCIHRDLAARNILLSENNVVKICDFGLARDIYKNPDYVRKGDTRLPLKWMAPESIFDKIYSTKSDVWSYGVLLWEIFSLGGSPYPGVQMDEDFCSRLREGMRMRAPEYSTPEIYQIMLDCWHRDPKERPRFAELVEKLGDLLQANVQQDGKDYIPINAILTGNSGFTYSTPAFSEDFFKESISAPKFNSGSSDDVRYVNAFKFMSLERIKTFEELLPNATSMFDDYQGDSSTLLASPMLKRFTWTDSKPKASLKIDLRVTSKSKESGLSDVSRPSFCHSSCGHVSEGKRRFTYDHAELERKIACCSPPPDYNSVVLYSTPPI
Sequence of c-Kit (P10721 26-976): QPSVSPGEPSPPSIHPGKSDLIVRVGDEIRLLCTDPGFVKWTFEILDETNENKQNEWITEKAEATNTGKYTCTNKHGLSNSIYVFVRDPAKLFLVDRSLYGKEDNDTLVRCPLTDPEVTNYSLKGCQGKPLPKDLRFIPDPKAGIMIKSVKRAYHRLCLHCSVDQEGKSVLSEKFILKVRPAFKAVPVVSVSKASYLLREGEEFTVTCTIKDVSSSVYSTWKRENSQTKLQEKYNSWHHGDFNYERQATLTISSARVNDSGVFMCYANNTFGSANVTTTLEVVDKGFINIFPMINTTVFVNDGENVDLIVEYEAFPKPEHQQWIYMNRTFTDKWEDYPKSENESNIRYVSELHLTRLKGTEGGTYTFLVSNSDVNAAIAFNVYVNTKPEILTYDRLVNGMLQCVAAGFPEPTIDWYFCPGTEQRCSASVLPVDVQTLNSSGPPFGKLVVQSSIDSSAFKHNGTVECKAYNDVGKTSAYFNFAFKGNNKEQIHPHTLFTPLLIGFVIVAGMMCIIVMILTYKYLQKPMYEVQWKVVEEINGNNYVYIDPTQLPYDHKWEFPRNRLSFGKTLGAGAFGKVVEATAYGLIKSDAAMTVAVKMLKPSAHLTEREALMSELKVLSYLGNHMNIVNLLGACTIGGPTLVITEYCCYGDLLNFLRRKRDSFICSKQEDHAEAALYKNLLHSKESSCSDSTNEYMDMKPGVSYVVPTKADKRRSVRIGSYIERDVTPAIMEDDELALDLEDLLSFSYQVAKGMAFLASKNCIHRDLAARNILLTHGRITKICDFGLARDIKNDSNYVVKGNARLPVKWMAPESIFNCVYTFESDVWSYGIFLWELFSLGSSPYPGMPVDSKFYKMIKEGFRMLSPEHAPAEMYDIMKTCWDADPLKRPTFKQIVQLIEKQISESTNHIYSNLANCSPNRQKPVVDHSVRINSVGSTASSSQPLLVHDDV

## Clc1ccc(Nc2nnc(Cc3ccncc3)c3ccccc23)cc1 [ZK222584, 1-(4-chloroanilino)-4-(4-pyridylmethyl)phthalazine]
[1]
  activity against c-Kit: has activity
[2]
  inhibition of Flt-1: can also inhibit
[3]
  inhibition of Flt-4: can also inhibit
